# Assay results reported in patent US8785457B2 (Cellzome Limited, priority 2009, dated 2014).
# Like-named read-outs stand apart in the source and are kept apart here.
# Assays:
# [1] = molecular target: T1, PI3Kalpha (PI3Ka) (Homo sapiens, UniProt P42336); assay: kinobeads assay, PI3Kalpha; assay type: binding
# T1 construct: endogenous in cells; host or cells: cell lysate
# Method: (§1) The kinobeads assay was performed as a competitive binding assay in which test compounds were added directly into a cell lysate. Test compounds (at various concentrations) and the affinity matrix (beads with immobilized phenylmorpholin-chromen ligand) were added to cell lysate aliquots and allowed to bind to the proteins contained in the lysate sample. After the incubation time the beads with captured proteins were separated from the lysate. Bound proteins were then eluted and the presence of kinases was detected and quantified using a multiplexed immunodetection format. Dose response curves for individual kinases were generated and IC50 values calculated.
# (§2) The effect of the compounds on the kinases PI3Kalpha (PI3Ka), PI3 Kbeta (PI3 Kb) and PI3 Kgamma (PI3 Kg) were tested in the kinobeads assay as described (WO-A 2009/098021).
# [2] = molecular target: T2, PI3 Kgamma (PI3 Kg) (Homo sapiens, UniProt P48736); assay: kinobeads assay, PI3Kgamma; assay type: binding
# T2 construct: endogenous in cells; host or cells: cell lysate
# T2 sequence (P48736 whole entry): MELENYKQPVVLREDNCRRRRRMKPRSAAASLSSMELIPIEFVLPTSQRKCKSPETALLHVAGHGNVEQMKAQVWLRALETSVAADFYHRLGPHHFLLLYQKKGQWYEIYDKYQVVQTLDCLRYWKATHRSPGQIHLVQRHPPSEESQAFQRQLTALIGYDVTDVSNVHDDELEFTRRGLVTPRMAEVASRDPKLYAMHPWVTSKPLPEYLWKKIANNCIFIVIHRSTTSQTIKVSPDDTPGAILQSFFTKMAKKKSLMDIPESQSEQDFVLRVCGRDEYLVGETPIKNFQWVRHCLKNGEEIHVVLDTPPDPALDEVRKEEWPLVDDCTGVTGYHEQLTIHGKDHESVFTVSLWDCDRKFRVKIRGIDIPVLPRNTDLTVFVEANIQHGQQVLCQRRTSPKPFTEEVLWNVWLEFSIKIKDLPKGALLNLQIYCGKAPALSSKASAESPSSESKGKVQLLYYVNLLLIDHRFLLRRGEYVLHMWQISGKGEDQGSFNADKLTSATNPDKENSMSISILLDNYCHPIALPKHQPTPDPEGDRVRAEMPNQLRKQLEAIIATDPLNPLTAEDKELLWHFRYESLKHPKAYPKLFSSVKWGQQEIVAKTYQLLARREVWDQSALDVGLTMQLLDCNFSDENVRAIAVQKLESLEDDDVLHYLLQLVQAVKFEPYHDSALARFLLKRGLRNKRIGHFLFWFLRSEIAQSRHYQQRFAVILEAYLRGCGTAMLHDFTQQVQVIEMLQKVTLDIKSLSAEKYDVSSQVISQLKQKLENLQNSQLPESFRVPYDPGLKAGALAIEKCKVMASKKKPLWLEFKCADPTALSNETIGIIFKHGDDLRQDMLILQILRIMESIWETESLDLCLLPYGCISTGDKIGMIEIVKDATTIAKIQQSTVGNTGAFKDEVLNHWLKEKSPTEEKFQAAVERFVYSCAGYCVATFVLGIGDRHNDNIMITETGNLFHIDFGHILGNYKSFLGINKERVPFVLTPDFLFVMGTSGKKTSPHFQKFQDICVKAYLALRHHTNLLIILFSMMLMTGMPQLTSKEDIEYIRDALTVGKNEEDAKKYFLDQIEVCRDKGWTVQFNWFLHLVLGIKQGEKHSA
# Method: as §1, §2
# [3] = molecular target: T3, PI3 Kbeta (PI3 Kb) (Homo sapiens, UniProt P42338); assay: kinobeads assay, PI3Kbeta; assay type: binding
# T3 construct: endogenous in cells; host or cells: cell lysate
# T3 sequence (P42338 whole entry): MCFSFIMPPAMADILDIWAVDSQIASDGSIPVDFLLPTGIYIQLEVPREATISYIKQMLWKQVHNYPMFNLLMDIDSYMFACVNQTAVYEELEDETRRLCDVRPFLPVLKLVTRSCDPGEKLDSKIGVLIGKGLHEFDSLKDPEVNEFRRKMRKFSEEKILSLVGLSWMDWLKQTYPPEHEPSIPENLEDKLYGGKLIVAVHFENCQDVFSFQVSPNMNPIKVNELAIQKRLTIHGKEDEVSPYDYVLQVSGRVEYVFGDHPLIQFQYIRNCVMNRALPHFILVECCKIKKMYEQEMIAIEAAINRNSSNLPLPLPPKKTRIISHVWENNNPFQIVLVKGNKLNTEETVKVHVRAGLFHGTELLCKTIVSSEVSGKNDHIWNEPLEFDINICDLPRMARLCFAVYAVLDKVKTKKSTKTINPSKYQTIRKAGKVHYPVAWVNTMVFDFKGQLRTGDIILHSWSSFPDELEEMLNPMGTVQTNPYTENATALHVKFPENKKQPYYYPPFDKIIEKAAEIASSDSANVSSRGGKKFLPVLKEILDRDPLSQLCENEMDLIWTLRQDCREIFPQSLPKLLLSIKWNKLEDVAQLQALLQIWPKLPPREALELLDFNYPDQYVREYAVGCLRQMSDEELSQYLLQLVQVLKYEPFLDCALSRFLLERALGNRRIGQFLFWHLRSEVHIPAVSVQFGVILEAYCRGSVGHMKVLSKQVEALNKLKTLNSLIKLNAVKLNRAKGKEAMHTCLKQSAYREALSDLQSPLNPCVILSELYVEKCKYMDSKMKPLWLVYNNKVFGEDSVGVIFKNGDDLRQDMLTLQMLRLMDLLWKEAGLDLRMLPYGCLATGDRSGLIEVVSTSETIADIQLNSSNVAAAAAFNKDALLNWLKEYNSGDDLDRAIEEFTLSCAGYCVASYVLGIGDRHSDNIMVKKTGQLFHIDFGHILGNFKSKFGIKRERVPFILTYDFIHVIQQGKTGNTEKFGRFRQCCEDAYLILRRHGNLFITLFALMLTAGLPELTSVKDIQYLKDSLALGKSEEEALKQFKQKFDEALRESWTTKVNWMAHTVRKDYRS
# T3 sequence (P27986 whole entry partner): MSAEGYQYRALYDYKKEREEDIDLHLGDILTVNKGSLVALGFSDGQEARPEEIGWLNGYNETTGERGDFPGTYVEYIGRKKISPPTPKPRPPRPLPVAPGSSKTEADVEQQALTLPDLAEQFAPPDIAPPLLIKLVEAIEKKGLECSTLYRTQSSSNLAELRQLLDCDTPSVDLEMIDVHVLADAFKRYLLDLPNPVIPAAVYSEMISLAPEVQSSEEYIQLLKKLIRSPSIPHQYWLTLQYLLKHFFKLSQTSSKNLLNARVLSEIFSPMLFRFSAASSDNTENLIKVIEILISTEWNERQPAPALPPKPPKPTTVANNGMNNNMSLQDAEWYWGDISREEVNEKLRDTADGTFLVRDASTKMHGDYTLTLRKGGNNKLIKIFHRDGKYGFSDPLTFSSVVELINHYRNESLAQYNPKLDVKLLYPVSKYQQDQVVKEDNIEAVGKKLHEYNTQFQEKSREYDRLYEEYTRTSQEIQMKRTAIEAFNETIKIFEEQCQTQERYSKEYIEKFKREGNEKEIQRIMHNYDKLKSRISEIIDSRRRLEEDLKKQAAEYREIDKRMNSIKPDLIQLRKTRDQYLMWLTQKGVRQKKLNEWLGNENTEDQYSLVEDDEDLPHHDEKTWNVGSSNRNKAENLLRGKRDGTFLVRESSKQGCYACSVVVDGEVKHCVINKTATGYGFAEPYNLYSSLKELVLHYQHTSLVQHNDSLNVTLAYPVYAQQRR
# Method: as §1, §2
# [4] = molecular target: T4, mTOR (Homo sapiens, UniProt P42345); assay: mTOR kinobeads assay (competitive binding in Jurkat cell lysate, immunodetection)
# T4 construct: endogenous in cells; host or cells: Jurkat, clone E6-1 (ATCC TIB-152) cell lysate
# Method: The compounds of the present invention as described were tested in the mTOR kinobeads assay as described below. […] After the incubation time the beads with captured proteins were separated from the lysate. Bound proteins were then eluted and the presence of mTOR, PI3K delta (PI3 Kd) and DNA-dependent protein kinase (DNA-PK) was detected and quantified using a specific antibody in a dot blot procedure and the Odyssey infrared detection system.
# as §1
# (§3) 5×DP buffer: 250 mM Tris-HCl pH 7.4, 25% Glycerol, 7.5 mM MgCl2, 750 mM NaCl, 5 mM Na3VO4, filter the 5×-lysis buffer through 0.22 μm filter and store in aliquots at −80° C. The 5×DP buffer is diluted to 1×DP buffer containing 1 mM DTT and 25 mM NaF.
# (§4) Stock solutions of test compounds were prepared in DMSO. In a 96 well plate 30 μl solution of diluted test compounds at 5 mM in DMSO were prepared. Starting with this solution a 1:3 dilution series (9 steps) was prepared. For control experiments (no test compound) a buffer containing 2% DMSO was used.
# Jurkat cells were homogenized in a Potter S homogenizer in lysis buffer: 50 mM Tris-HCl, 0.8% NP40, 5% glycerol, 150 mM NaCl, 1.5 mM MgCl2, 25 mM NaF, 1 mM sodium vanadate, 1 mM DTT, pH 7.5. […] The material was dounced 10 times using a mechanized POTTER S, transferred to 50 ml falcon tubes, incubated for 30 minutes on ice and spun down for 10 min at 20,000 g at 4° C. (10,000 rpm in Sorvall SLA600, precooled). […] (33.500 rpm in Ti50.2, precooled). The supernatant was transferred again to a fresh 50 ml falcon tube, the protein concentration was determined by a Bradford assay (BioRad) and samples containing 50 mg of protein per aliquot were prepared. The samples were immediately used for experiments or frozen in liquid nitrogen and stored frozen at −80° C.
# Jurkat cell lysate (approximately 50 mg protein per plate) was thawed in a water bath at room temperature and then kept on ice. […] The diluted cell lysate was stored on ice.
# Plates were sealed and incubated for two hours in a cold room on a Thermoxer with shaking (750 rpm). Afterwards the plate was washed twice with 230 μl washing buffer (1×DP 0.4% NP40). […] The eluate was frozen quickly at −80° C. and stored at −20° C.
# The kinases in the eluates were detected and quantified by spotting on Nitrocellulose membranes and using a first antibody directed against the kinase of interest and a fluorescently labeled secondary antibody (anti-mouse or anti-rabbit IRDye™ antibodies from Rockland).
# Afterwards the membrane was washed three times for 10 minutes with PBS buffer containing 0.1% Tween 20 at room temperature. […] Afterwards the membrane was washed three times for 10 minutes each with 1×PBS buffer containing 0.1% Tween 20 at room temperature. Then the membrane was rinsed once with PBS buffer to remove residual Tween 20. The membrane was kept in PBS buffer at 4° C. and then scanned with the Odyssey instrument. Fluorescence signals were recorded and analysed according to the instructions of the manufacturer.
# [5] = molecular target: T5, DNA-dependent protein kinase (DNA-PK) (Homo sapiens, UniProt P78527); assay: kinobeads assay, DNA-PK; assay type: binding
# T5 construct: endogenous in cells; host or cells: Jurkat, clone E6-1 (ATCC TIB-152) cell lysate
# Method: (§5) The compounds of the present invention as described were tested in the mTOR kinobeads assay as described below. Briefly, test compounds (at various concentrations) and the affinity matrix with the immobilized phenylmorpholin-chromen ligand (8-(4-aminomethyl-phenyl)-2-morpholin-4-yl-chromen-4-one) were added to cell lysate aliquots and allowed to bind to the proteins in the lysate sample. After the incubation time the beads with captured proteins were separated from the lysate. Bound proteins were then eluted and the presence of mTOR, PI3K delta (PI3 Kd) and DNA-dependent protein kinase (DNA-PK) was detected and quantified using a specific antibody in a dot blot procedure and the Odyssey infrared detection system. Kinobeads assays for PI3K (WO-A 2008/015013) and for kinase selectivity profiling (WO 2006/134056) have been previously described.
# as §1
# (§6) The affinity matrix (beads with immobilized phenylmorpholin-chromen ligand) was washed two times with 15 ml of 1×DP buffer containing 0.2% NP40 (IGEPAL® CA-630, Sigma, #13021) and then resupended in 5.5 ml of 1×DP buffer containing 0.2% NP40 (10% beads slurry).
# as §3
# as §4, with “used. Compound CZC00018052 served as a positive control (PI-103; Calbiochem catalogue number 528100).” for “used.”
# (§7) Jurkat cells (ATCC catalogue number TIB-152 Jurkat, clone E6-1) were grown in 1 liter Spinner flasks (Integra Biosciences, #182101) in suspension in RPMI 1640 medium (Invitrogen, #21875-034) supplemented with 10% Fetal Bovine Serum (Invitrogen) at a density between 0.15×10^6 and 1.2×10^6 cells/ml. Cells were harvested by centrifugation, washed once with 1×PBS buffer (Invitrogen, #14190-094) and cell pellets were frozen in liquid nitrogen and subsequently stored at −80° C.
# (§8) Jurkat cells were homogenized in a Potter S homogenizer in lysis buffer: 50 mM Tris-HCl, 0.8% NP40, 5% glycerol, 150 mM NaCl, 1.5 mM MgCl2, 25 mM NaF, 1 mM sodium vanadate, 1 mM DTT, pH 7.5. One complete EDTA-free tablet (protease inhibitor cocktail, Roche Diagnostics, 1873580) per 25 ml buffer was added. The material was dounced 10 times using a mechanized POTTER S, transferred to 50 ml falcon tubes, incubated for 30 minutes on ice and spun down for 10 min at 20,000 g at 4° C. (10,000 rpm in Sorvall SLA600, precooled). The supernatant was transferred to an ultracentrifuge (UZ)-polycarbonate tube (Beckmann, 355654) and spun for 1 hour at 100.000 g at 4° C. (33.500 rpm in Ti50.2, precooled). The supernatant was transferred again to a fresh 50 ml falcon tube, the protein concentration was determined by a Bradford assay (BioRad) and samples containing 50 mg of protein per aliquot were prepared. The samples were immediately used for experiments or frozen in liquid nitrogen and stored frozen at −80° C. […]
# [6] = molecular target: T6, PI3K delta (PI3 Kd) (Homo sapiens, UniProt O00329); assay: kinobeads assay, PI3K delta; assay type: binding
# T6 construct: endogenous in cells; host or cells: Jurkat, clone E6-1 (ATCC TIB-152) cell lysate
# T6 sequence (O00329 whole entry): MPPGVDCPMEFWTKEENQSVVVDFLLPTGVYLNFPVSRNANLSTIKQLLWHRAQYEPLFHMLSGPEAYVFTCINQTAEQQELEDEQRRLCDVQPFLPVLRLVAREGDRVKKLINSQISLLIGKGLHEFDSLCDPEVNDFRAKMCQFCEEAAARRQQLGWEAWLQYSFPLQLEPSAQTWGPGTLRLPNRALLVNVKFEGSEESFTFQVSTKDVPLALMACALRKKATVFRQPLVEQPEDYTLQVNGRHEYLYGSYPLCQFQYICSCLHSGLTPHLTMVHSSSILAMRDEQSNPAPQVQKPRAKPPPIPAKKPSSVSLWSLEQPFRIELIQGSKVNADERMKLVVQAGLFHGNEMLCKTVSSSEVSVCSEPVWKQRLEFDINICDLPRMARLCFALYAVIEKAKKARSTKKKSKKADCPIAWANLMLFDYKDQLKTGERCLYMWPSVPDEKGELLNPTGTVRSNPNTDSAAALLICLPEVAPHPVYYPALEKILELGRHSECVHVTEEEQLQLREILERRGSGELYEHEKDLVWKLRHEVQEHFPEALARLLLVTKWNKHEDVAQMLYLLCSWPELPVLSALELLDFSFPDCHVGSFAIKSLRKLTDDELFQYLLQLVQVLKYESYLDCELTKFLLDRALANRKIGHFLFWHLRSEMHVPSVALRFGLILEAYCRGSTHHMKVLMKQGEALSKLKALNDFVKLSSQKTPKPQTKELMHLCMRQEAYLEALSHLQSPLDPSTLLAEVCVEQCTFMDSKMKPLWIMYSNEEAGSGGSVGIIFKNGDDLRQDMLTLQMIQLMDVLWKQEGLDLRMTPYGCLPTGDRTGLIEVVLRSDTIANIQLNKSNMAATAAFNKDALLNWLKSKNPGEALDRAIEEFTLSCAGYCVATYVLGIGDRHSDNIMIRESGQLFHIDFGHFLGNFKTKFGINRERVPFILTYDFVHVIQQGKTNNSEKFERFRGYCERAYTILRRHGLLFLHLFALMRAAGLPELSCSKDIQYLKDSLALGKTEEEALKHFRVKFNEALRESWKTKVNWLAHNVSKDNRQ
# T6 sequence (P27986 whole entry partner): as the sequence (P27986 whole entry partner) above
# Method: as §5, §1, §6, §3
# as §4, with “used. Compound CZC00018052 served as a positive control (PI-103; Calbiochem catalogue number 528100).” for “used.”
# as §7, §8
# [7] = Further Kinobeads Data, read-out: PI3Kg
# [8] = Further Kinobeads Data, read-out: PI3Kb
# [9] = Further Kinobeads Data, read-out: mTor
# [10] = Further Kinobeads Data, read-out: DNAPK
# [11] = Further Kinobeads Data, read-out: PI3Kd
# [12] = kinobeads assay, Table 6, read-out: Inhibition values (IC50) PI3Kg
# [13] = kinobeads assay, Table 6, read-out: Inhibition values (IC50) PI3Kb
# [14] = kinobeads assay, Table 6, read-out: Inhibition values (IC50) mTOR
# [15] = kinobeads assay, Table 6, read-out: Inhibition values (IC50) DNAPK
# [16] = kinobeads assay, Table 6, read-out: Inhibition values (IC50) PI3Kd
# T1 sequence (P42336 whole entry): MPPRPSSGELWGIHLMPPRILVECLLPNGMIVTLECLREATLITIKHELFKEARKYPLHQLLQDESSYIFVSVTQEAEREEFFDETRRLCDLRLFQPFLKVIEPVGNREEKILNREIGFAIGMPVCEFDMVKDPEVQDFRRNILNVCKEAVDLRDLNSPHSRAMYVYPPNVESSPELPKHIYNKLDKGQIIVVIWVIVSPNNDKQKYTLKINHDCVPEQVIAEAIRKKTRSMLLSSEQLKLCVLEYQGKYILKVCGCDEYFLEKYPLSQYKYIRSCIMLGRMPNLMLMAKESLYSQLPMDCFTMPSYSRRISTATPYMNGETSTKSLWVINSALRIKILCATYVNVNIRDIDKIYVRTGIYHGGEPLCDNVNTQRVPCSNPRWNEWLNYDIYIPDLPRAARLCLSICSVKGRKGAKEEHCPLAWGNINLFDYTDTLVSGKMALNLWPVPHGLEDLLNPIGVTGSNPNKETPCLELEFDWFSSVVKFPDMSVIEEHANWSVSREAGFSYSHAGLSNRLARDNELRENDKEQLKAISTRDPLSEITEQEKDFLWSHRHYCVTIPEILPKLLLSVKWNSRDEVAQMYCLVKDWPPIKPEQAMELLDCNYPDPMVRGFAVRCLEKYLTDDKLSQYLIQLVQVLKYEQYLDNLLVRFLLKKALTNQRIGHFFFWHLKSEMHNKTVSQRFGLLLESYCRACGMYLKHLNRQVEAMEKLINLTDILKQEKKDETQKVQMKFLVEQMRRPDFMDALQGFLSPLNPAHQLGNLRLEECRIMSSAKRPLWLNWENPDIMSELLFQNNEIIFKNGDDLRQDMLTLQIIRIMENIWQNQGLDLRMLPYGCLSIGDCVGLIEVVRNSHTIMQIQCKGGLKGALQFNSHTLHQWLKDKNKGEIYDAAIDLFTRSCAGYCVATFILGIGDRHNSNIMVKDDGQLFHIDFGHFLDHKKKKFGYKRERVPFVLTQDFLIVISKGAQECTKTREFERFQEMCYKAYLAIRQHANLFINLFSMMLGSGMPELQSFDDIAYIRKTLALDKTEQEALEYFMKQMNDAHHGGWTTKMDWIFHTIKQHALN
# T1 sequence (P27986 whole entry partner): as the sequence (P27986 whole entry partner) above
"IC50 ([1]; Further Kinobeads Data, read-out: PI3Ka) [µM]","IC50 [2, 7] [µM]","IC50 [3, 8] [µM]","IC50 [4, 9] [µM]","IC50 [5, 10] [µM]","IC50 [6, 11] [µM]","Inhibition values (IC50) PI3Ka ([1]; kinobeads assay, Table 6)","IC50 [2, 12] [µM]","IC50 [3, 13] [µM]","IC50 [4, 14] [µM]","IC50 [5, 15] [µM]","IC50 [6, 16] [µM]",PI3Ka ([1]; Further Kinobeads Data),"IC50 ([1]; kinobeads assay, Table 6, read-out: Inhibition values (IC50) PI3Ka) [µM]",SMILES
1 to 10,> 10,> 10,< 0.1,1 to 10,1 to 10,–,–,–,–,–,–,–,–,"C[C@@H]1COCCN1c1nc(-c2ccc(NC(=O)NC3CC3)cc2F)nc2c1CN(C(=O)OC(C)(C)C)C2 [Example 182, (R)-tert-butyl 2-(4-(3-cyclopropylureido)-2-fluorophenyl)-4-(3-methylmorpholino)-5H-pyrrolo[3,4-d]pyrimidine-6(7H)-carboxylate]"
–,> 10,> 10,< 0.1,> 10,1 to 10,–,–,–,–,–,–,D (D >10 μM),–,"CCNC(=O)Nc1ccc(-c2nc3c(c(N4CCOC[C@@H]4C)n2)CN(C(C)=O)C3)c(F)c1 [Example 157, (S)-1-(4-(6-acetyl-4-(3-methylmorpholino)-6,7-dihydro-5H-pyrrolo[3,4-d]pyrimidin-2-yl)-3-fluorophenyl)-3-ethylurea]"

# Continued, compound first:
SMILES,"IC50 ([1]; Further Kinobeads Data, read-out: PI3Ka) [µM]","IC50 [2, 7] [µM]","IC50 [3, 8] [µM]","IC50 [4, 9] [µM]","IC50 [5, 10] [µM]","IC50 [6, 11] [µM]","Inhibition values (IC50) PI3Ka ([1]; kinobeads assay, Table 6)","IC50 [2, 12] [µM]","IC50 [3, 13] [µM]","IC50 [4, 14] [µM]","IC50 [5, 15] [µM]","IC50 [6, 16] [µM]",PI3Ka ([1]; Further Kinobeads Data),"IC50 ([1]; kinobeads assay, Table 6, read-out: Inhibition values (IC50) PI3Ka) [µM]"
"CCNC(=O)Nc1ccc(-c2nc3c(c(N4CCOC[C@@H]4C)n2)CN(C(=O)C2CCN(C(C)=O)CC2)C3)cc1F [Example 123, (S)-1-(4-(6-(1-acetylpiperidine-4-carbonyl)-4-(3-methylmorpholino)-6,7-dihydro-5H-pyrrolo[3,4-d]pyrimidin-2-yl)-2-fluorophenyl)-3-ethylurea]",–,–,–,–,–,–,D (D >10 μM),> 10,> 10,0.1 to 1,> 10,> 10,–,–
"CCNC(=O)Nc1ccc(-c2nc3c(c(N4CCOCC4)n2)CN(C(=O)OC(C)(C)C)C3)c(F)c1 [Example 145, tert-butyl 2-(4-(3-ethylureido)-2-fluorophenyl)-4-morpholino-5H-pyrrolo[3,4-d]pyrimidine-6(7H)-carboxylate]",–,> 10,> 10,0.1 to 1,> 10,> 10,–,–,–,–,–,–,D (D >10 μM),–
"CCOC(=O)N1Cc2nc(-c3ccc(NC(=O)NCCNC(C)=O)cc3)nc(N3CCOC[C@@H]3C)c2C1 [Example 124, (S)-ethyl 2-(4-(3-(2-acetamidoethyl)ureido)phenyl)-4-(3-methylmorpholino)-5H-pyrrolo[3,4-d]pyrimidine-6(7H)-carboxylate]",–,–,–,–,–,–,–,> 10,> 10,0.1 to 1,> 10,1 to 10,–,1 to 10
